{"source": "patent US8278090B1", "about": "“Heterotrophic cultivation of hydrocarbon-producing microalgae” (Solazyme, Inc., priority 2008, dated 2012)", "type_in_all_cases": "cell-based", "key": {"[1]": {"tested_on": "Botryococcus braunii (strain UTEX 572)", "assay": "Media component screening in heterotrophic culture", "settings": "UTEX 572, 0.2% component + 3% glucose, 6-well plates, dark, room temperature, 16 days", "description": "Media components incorporated in soil bacteria media were tested in heterotrophic culture of Botryococcus braunii (strain UTEX 572). For each component tested, 5 ml of B11 media (as described in Example 2 above) supplemented with 3% glucose (Fisher) were prepared in 6-well plates. Additionally, the media was supplemented with 0.2% of one of the following soil bacteria media components: dextrin (MP Biomedicals), malt extract (MP Biomedicals), traders yeast (Pharmamedia), corn meal, corn steep powder (Marcor), whole dead yeast (Engevita), casein type M (Marcor), casein type B (Marcor), tomato paste, molasses, soy hydrolysate (MP Biomedicals), soy flour (Arrowhead Mills), corn starch (Sigma), and maltose (Fisher). Wells were inoculated and cultures were grown at room temperature in the dark for 16 days. […] All media were filter sterilized.\nThe cells from each condition were transferred into 150 mL T150 flasks containing 50 mL B11 media with 3% glucose and 0.2% of their respective supplemental component. Cultures were grown in the dark for one week at 28° C. Cells were pelleted and fresh media (100 mL) were added to the cultures. The cultures were allowed to grow for another two weeks in the dark at 28° C. and then were collected and dry cell weights were measured. For most conditions, the addition of a 0.2% supplemental component increased cell growth as compared to glucose control. […]"}, "[2]": {"tested_on": "Botryococcus braunii UTEX 2441", "assay": "Heterotrophic growth with glucose, 24 well plate, dark or light", "settings": "for DCW g/L / DCW mg/ml.: 4 weeks", "description": "(§1) Modified BG-11 (17.65 mM NaNO3, 0.23 mM K2PO4, 0.3 mM MgSO4.7H2O, 0.25 mM CaCl2.2H2O, 0.189 mM Na2CO3, 0.03 mM citric acid monohydrate, 0.023 mM ferric ammonium citrate, 0.046 mM H3BO3, 9.15 μM MnCl2.4H2O, 0.77 μM ZnSO4.7H2O, 0.32 μM CuSO4.5H2O, 0.21 μM CoCl2.6H2O, 1.62 μM NaMoO4.2H2O, 2.69 μM Na2EDTA, 9 mg/l Tricine, 1.99 μM Thiamine-HCl, 0.006 μM Cyanocobalamine, 0.044 μM Calcium Pantothenate, 0.29 μM p-aminobenzoic acid, soil water)."}, "[3]": {"tested_on": "Botryococcus braunii UTEX 572", "assay": "Heterotrophic growth with glucose, 24 well plate, dark or light", "settings": "for DCW g/L / DCW mg/ml.: 4 weeks", "description": "as §1"}, "[4]": {"tested_on": "Botryococcus braunii N-836", "assay": "Complex nitrogen sources on heterotrophic growth with glucose", "settings": "N-836, 1% glucose in BG11, dark, 4 weeks", "description": "(§2) The following experiment was done with UTEX 572, UTEX 2441, and N-836 in 20 ml of BG11 plus:\n(§3) 1% glucose+2 g/L hydrolyzed casein"}, "[5]": {"tested_on": "Botryococcus braunii UTEX 2441", "assay": "Complex nitrogen sources on heterotrophic growth with glucose", "settings": "UTEX 2441, 1% glucose in BG11, dark, 4 weeks", "description": "as §2, §3"}, "[6]": {"tested_on": "Botryococcus braunii UTEX 572", "assay": "Complex nitrogen sources on heterotrophic growth with glucose", "settings": "UTEX 572, 1% glucose in BG11, dark, 4 weeks", "description": "as §2, §3"}, "[7]": {"tested_on": "Botryococcus braunii N-836", "assay": "Different fixed carbon sources on heterotrophic growth, visual score", "design": "key to heterotrophic growth score, 0.1% / heterotrophic growth score, 0.5% / heterotrophic growth score, 1%: Growth was scored with +'s by visual examination of the cultures; ++: Growth was scored with +'s by visual examination of the cultures; +++: Growth was scored with +'s by visual examination of the cultures; ++++: Growth was scored with +'s by visual examination of the cultures; +++++: Growth was scored with +'s by visual examination of the cultures", "description": "(§4) All carbon sources were tested at three different concentrations; 0.1%, 0.5% and 1%. Cultures were grown in 24 well plates for 4 weeks in the dark in 1 ml BG11 plus fixed carbon. Control cultures were grown in BG-11 media under phototrophic conditions without a fixed carbon source. Growth was scored with +'s by visual examination of the cultures (see Table 7). UTEX 572 grew best in glucose, however there was also growth on mannose, galactose and fructose. UTEX 2441 preferred mannose in the dark but there was some growth in galactose, fructose and glycerol."}, "[8]": {"tested_on": "Botryococcus braunii UTEX 2441", "assay": "Different fixed carbon sources on heterotrophic growth, visual score", "design": "key to heterotrophic growth score, 0.1% / heterotrophic growth score, 0.5% / heterotrophic growth score, 1%: Growth was scored with +'s by visual examination of the cultures; ++: Growth was scored with +'s by visual examination of the cultures; +++: Growth was scored with +'s by visual examination of the cultures; ++++: Growth was scored with +'s by visual examination of the cultures; +++++: Growth was scored with +'s by visual examination of the cultures", "settings": "4 weeks", "description": "as §4"}, "[9]": {"tested_on": "Botryococcus braunii UTEX 572", "assay": "Different fixed carbon sources on heterotrophic growth, visual score", "design": "key to heterotrophic growth score, 0.1% / heterotrophic growth score, 0.5% / heterotrophic growth score, 1%: Growth was scored with +'s by visual examination of the cultures; ++: Growth was scored with +'s by visual examination of the cultures; +++: Growth was scored with +'s by visual examination of the cultures; ++++: Growth was scored with +'s by visual examination of the cultures; +++++: Growth was scored with +'s by visual examination of the cultures", "description": "as §4"}, "[10]": {"tested_on": "Botryococcus braunii (UTEX 572)", "assay": "High surface to volume heterotrophic cultivation", "settings": "UTEX 572, 3% glucose, dark, stepwise scale-up", "description": "In order to develop a reproducible, scalable process for the heterotrophic cultivation of B. braunii, a low-volume, slow-mixing heterotrophic procedure was developed. Botryococcus braunii (UTEX 572) cultures were transferred from solid media plates into 6-well plates using B-11 media supplemented with 3% glucose and was grown for one week at room temperature in the dark. The cultures were then transferred into 50 mL of fresh media in a 150 mL T-flask and agitated at 40 rpm on a plate shaker for one week at room temperature in the dark. The cultures were then transferred into 100 mL of fresh media in a 500 mL T-flask and agitated at 30 rpm with a two-inch throw for one week at room temperature in the dark. Finally, the cultures were transferred into 350 mL of fresh media in a Fernbach flask and agitated at 30 rpm with a two-inch throw for one week at room temperature in the dark. In one set of cultures, the cells were transferred into 500 mL of fresh media in a Fernbach flask (instead of 350 mL). Dry cell weights were collected for all cultures and compared. Cultures that were grown in a final volume of 350 mL of media reached a DCW of about 9 grams per liter."}}, "note": "Where “and” joins values, the source holds several entries; their conditions need not be identical. Equal values may be shown once.", "data": [{"smiles": "OC[C@H]1O[C@H](O[C@H]2[C@H](O)[C@@H](O)C(O)O[C@@H]2CO)[C@H](O)[C@@H](O)[C@@H]1O", "note": "(mixture of isomers) [maltose]", "values": [{"measurement": "growth by visual observation as compared to glucose only control", "setting": "[1]", "result": "better growth"}]}, {"smiles": "O=C[C@H](O)[C@@H](O)[C@H](O)[C@H](O)CO", "note": "[glucose]", "values": [{"measurement": "DCW g/L", "setting": "[2]; UTEX 2441, 0.1% glucose, dark", "result": 0.3, "unit": "g/L"}, {"measurement": "DCW mg/ml.", "setting": "[2]; UTEX 2441, 0.1% glucose, dark", "result": 0.3, "unit": "mg/mL"}, {"measurement": "DCW g/L", "setting": "[2]; UTEX 2441, 0.2% glucose, dark", "result": 0.3, "unit": "g/L"}, {"measurement": "DCW mg/ml.", "setting": "[2]; UTEX 2441, 0.2% glucose, dark", "result": 0.3, "unit": "mg/mL"}, {"measurement": "DCW g/L", "setting": "[2]; UTEX 2441, 0.5% glucose, dark", "result": 0.1, "unit": "g/L"}, {"measurement": "DCW mg/ml.", "setting": "[2]; UTEX 2441, 0.5% glucose, dark", "result": 0.1, "unit": "mg/mL"}, {"measurement": "growth in the dark at 1% glucose compared with 0.1 and 0.5%", "setting": "[2]; UTEX 2441, 1% glucose, dark", "result": "best growth"}, {"measurement": "DCW g/L", "setting": "[2]; UTEX 2441, 1.0% glucose, dark", "result": 0.7, "unit": "g/L"}, {"measurement": "DCW mg/ml.", "setting": "[2]; UTEX 2441, 1.0% glucose, dark", "result": 0.7, "unit": "mg/mL"}, {"measurement": "growth with glucose in the dark", "setting": "[2]; UTEX 2441, BG11 plus glucose, dark", "result": "clearly grew"}, {"measurement": "growth with glucose in the light", "setting": "[2]; UTEX 2441, BG11 plus glucose, light", "result": "no growth"}, {"measurement": "DCW g/L", "setting": "[3]; UTEX 572, 0.1% glucose, dark", "result": 0.2, "unit": "g/L"}, {"measurement": "DCW mg/ml.", "setting": "[3]; UTEX 572, 0.1% glucose, dark", "result": 0.2, "unit": "mg/mL"}, {"measurement": "DCW g/L", "setting": "[3]; UTEX 572, 0.2% glucose, dark", "result": 0.2, "unit": "g/L"}, {"measurement": "DCW mg/ml.", "setting": "[3]; UTEX 572, 0.2% glucose, dark", "result": 0.2, "unit": "mg/mL"}, {"measurement": "DCW g/L", "setting": "[3]; UTEX 572, 0.5% glucose, dark", "result": 0.4, "unit": "g/L"}, {"measurement": "DCW mg/ml.", "setting": "[3]; UTEX 572, 0.5% glucose, dark", "result": 0.4, "unit": "mg/mL"}, {"measurement": "growth in the dark at 1% glucose compared with 0.1 and 0.5%", "setting": "[3]; UTEX 572, 1% glucose, dark", "result": "best growth"}, {"measurement": "growth with glucose in the dark", "setting": "[3]; UTEX 572, BG11 plus glucose, dark", "result": "clearly grew"}, {"measurement": "growth with glucose in the light", "setting": "[3]; UTEX 572, BG11 plus glucose, light", "result": "no growth"}, {"measurement": "DCW", "setting": "[4]", "result": 0.267, "unit": "g/L"}, {"measurement": "DCW mg/3 m1.", "setting": "[4]", "result": 0.8, "unit": "mg/3 m1"}, {"measurement": "DCW", "setting": "[5]", "result": 0.067, "unit": "g/L"}, {"measurement": "DCW mg/3 m1.", "setting": "[5]", "result": 0.2, "unit": "mg/3 m1"}, {"measurement": "DCW", "setting": "[6]", "result": "0.20 g/L and 0.33 g/L"}, {"measurement": "DCW mg/3 m1.", "setting": "[6]", "result": "0.6 mg/3 m1 and 1.0 mg/3 m1"}, {"measurement": "heterotrophic growth score, 0.1%", "setting": "[7]; N-836, 0.1% carbon source in 1 ml BG11, dark, 4 weeks", "result": "++"}, {"measurement": "heterotrophic growth score, 0.5%", "setting": "[7]; N-836, 0.5% carbon source in 1 ml BG11, dark, 4 weeks", "result": "++"}, {"measurement": "heterotrophic growth score, 1%", "setting": "[7]; N-836, 1% carbon source in 1 ml BG11, dark, 4 weeks", "result": "+++"}, {"measurement": "heterotrophic growth on carbon source, in words", "setting": "[7]; N-836, dark", "result": "heterotrophic growth"}, {"measurement": "heterotrophic growth score, 0.1%", "setting": "[8]; UTEX 2441, 0.1% carbon source in 1 ml BG11, dark", "result": "++"}, {"measurement": "heterotrophic growth score, 0.5%", "setting": "[8]; UTEX 2441, 0.5% carbon source in 1 ml BG11, dark", "result": "++"}, {"measurement": "heterotrophic growth score, 1%", "setting": "[8]; UTEX 2441, 1% carbon source in 1 ml BG11, dark", "result": "++++"}, {"measurement": "heterotrophic growth score, 0.1%", "setting": "[9]; UTEX 572, 0.1% carbon source in 1 ml BG11, dark, 4 weeks", "result": "+++"}, {"measurement": "heterotrophic growth score, 0.5%", "setting": "[9]; UTEX 572, 0.5% carbon source in 1 ml BG11, dark, 4 weeks", "result": "++++"}, {"measurement": "heterotrophic growth score, 1%", "setting": "[9]; UTEX 572, 1% carbon source in 1 ml BG11, dark, 4 weeks", "result": "+++++"}, {"measurement": "heterotrophic growth on carbon source, in words", "setting": "[9]; UTEX 572, dark", "result": "grew best"}, {"measurement": "DCW", "setting": "[10]; final volume 350 mL", "result": "about 9 grams per liter"}, {"measurement": "DCW", "setting": "[10]; final volume 500 mL", "result": "about 3 grams per liter"}]}]}
